Measured values published in publication PMC3702004, “Comparison of Intake and Systemic Relative Effect Potencies of Dioxin-like Compounds in Female Mice after a Single Oral Dose” (Environmental Health Perspectives, 2013).

Columns and labels:
[1] = toxic equivalency factor relative to TCDD; ref Van den Berg et al. 2006; cited from earlier work
[2] = Body and organ weight, hepatic lipid content; format: in vivo, female C57BL/6 mice; conditions: day 3; for % lipid / g liver: pooled liver samples; for Dose with significant increase in liver weight vs vehicle controls: single oral dose
Experimental: Animals. Eight-week-old female C57BL/6 mice (Harlan laboratories, Venray, the Netherlands) were randomly assigned to treatment groups (six animals per group) and allowed to acclimate for 1.5 weeks. The animals were housed in groups in standard cages and conditions (23 ± 2°C, 50–60% relative humidity, 12-hr dark/light cycle) with free access to food and water. Mice received a single dose of test compound by oral gavage at a dosing volume of 10 mL/kg body weight (BW). Mice treated with corn oil vehicle (10 mL/kg BW) served as controls. For each congener, five different doses were administered, ranging from 0.5–100 μg/kg BW (TCDD) to 5,000–500,000 µg/kg BW (PCB-153). Detailed information on doses is provided in Supplemental Material, Table S1 (http://dx.doi.org/10.1289/ehp.1206336). On day 3 after dosing, animals were euthanized by CO2/O2 asphyxiation, and blood was immediately collected from the abdominal aorta. The liver, thymus, spleen, and adipose tissue were removed, weighed (liver, thymus, and spleen), snap frozen, and stored at –80°C. All animal treatments were performed with permission of the Animal Ethical Committee (DEC Utrecht) and performed according to the [Law on Animal Experiments (1977)]. Animals were treated humanely and with regard for alleviation of suffering.
Compound analysis. Adipose and liver tissues samples were homogenized in Na2SO4, followed by extraction and clean-up in one step, and then eluted with 200 mL 1:1 hexane:dichloromethane on an open column packed with 40% wt/wt H2SO4-impregnated silica and KOH-silica. Blood plasma samples were extracted on an open column using Chem-Elut (Agilent Technologies, Santa Clara, CA, USA) and then NaCl eluted with 75 mL 3:2 hexane:2-propanol. Clean-up was performed using a miniaturized silica column (as described above), and samples were eluted using 30 mL hexane. Because the samples typically contained high levels of the analytes, only a small fraction was evaporated and analyzed. Prior to evaporation, we spiked a fraction of the samples with ^13C-labeled standards. We checked potential loss of analytes during extraction and clean-up by reextracting the samples using the identical protocol used for the samples. […] Tetradecane was added prior to evaporation. Sample analysis followed the U.S. Environmental Protection Agency Method 1613 ([U.S. Environmental Protection Agency 1994]) using single ion monitoring mode on an Agilent 6809N gas chromatograph (Agilent Technologies) coupled with a Micromass Ultima Autospec Ultra high-resolution mass spectrometer (HRMS; Waters Corp., Milford, MA, USA). Compounds were separated on a 60 m × 0.25 mm DB5-MS column ([…]; J&W Scientific, Folsom, CA, USA). The HRMS was operated with electron impact ionization with electron energy of 35 eV and an ion source temperature of 250°C. To reduce the number of analyses, samples were pooled before clean-up. […] This method was used because full congener–specific separation could be achieved on the high-resolution GC–HRMS. For lipid determination, samples were evaporated to dryness after the extraction step, and the amount of lipids was determined gravimetrically. Concentrations were calculated based on lipid weight and wet weight. The analysis of samples for the PCB-118 5,000 μg/kg BW dose failed during the procedure; thus analysis for this group could not be completed.
Statistical analysis. Statistical significant differences of the means and variances were determined using one-way analysis of variance (ANOVA) followed by Tukey-Kramer multiple comparisons. Differences were considered statistically significant at p < 0.05. Statistical calculations were performed using GraphPad 6.01 (GraphPad Software Inc.).

In the case of Clc1cc2oc3c(Cl)c(Cl)c(Cl)cc3c2cc1Cl [Congener 4-PeCDF, 2,3,4,7,8-pentachlorodibenzofuran], the WHO-TEF [1] is listed as 0.3, the Body weight ([2]; oral dose 5 µg/kg bw) is listed as 19.3 ± 1.2 gram and the Liver weight ([2]; oral dose 5 µg/kg bw) is listed as 5.37 ± 0.32 % of bw. For the same molecule, the Spleen weight ([2]; oral dose 5 µg/kg bw) was 0.29 ± 0.05 % of bw, the Thymus weight ([2]; oral dose 5 µg/kg bw) was 0.26 ± 0.07 % of bw and the “% lipid / g liver” value ([2]; oral dose 5 µg/kg bw) was 3.6%. The Body weight ([2]; oral dose 25 µg/kg bw) was 19.0 ± 1.1 gram, the Liver weight ([2]; oral dose 25 µg/kg bw) was 5.32 ± 0.19 % of bw and the Spleen weight ([2]; oral dose 25 µg/kg bw) was 0.33 ± 0.04 % of bw. For the same molecule, the Thymus weight ([2]; oral dose 25 µg/kg bw) was 0.24 ± 0.04 % of bw, the “% lipid / g liver” value ([2]; oral dose 25 µg/kg bw) was 4.5% and the Body weight ([2]; oral dose 100 µg/kg bw) was 19.2 ± 1.0 gram. The Liver weight ([2]; oral dose 100 µg/kg bw) was 5.94 ± 0.27 % of bw, the Spleen weight ([2]; oral dose 100 µg/kg bw) was 0.32 ± 0.03 % of bw and the Thymus weight ([2]; oral dose 100 µg/kg bw) was 0.22 ± 0.04 % of bw. The “% lipid / g liver” value ([2]; oral dose 100 µg/kg bw) was 4.5%, the Body weight ([2]; oral dose 250 µg/kg bw) was 19.8 ± 1.0 gram and the Liver weight ([2]; oral dose 250 µg/kg bw) was 6.05 ± 0.42 % of bw. For the same molecule, the Spleen weight ([2]; oral dose 250 µg/kg bw) was 0.34 ± 0.04 % of bw, the Thymus weight ([2]; oral dose 250 µg/kg bw) was 0.23 ± 0.03 % of bw and the Body weight ([2]; oral dose 1000 µg/kg bw) was 20.2 ± 1.1 gram. For the same molecule, the Liver weight ([2]; oral dose 1000 µg/kg bw) was 6.35 ± 0.30 % of bw, the Spleen weight ([2]; oral dose 1000 µg/kg bw) was 0.32 ± 0.02 % of bw and the Thymus weight ([2]; oral dose 1000 µg/kg bw) was 0.22 ± 0.04 % of bw. For the same molecule, the “Dose with significant increase in liver weight vs vehicle controls” value [2] was no less than 100 µg/kg BW.
For Clc1ccc(-c2cc(Cl)c(Cl)cc2Cl)cc1Cl [PCB-118, 2,3´,4,4´,5-pentachlorobiphenyl], the WHO-TEF [1] is listed as 0.00003, the Body weight ([2]; oral dose 5000 µg/kg bw) is listed as 18.3 ± 0.9 gram and the Liver weight ([2]; oral dose 5000 µg/kg bw) is listed as 5.04 ± 0.22 % of bw. The Spleen weight ([2]; oral dose 5000 µg/kg bw) was 0.32 ± 0.03 % of bw, the Thymus weight ([2]; oral dose 5000 µg/kg bw) was 0.27 ± 0.03 % of bw and the “% lipid / g liver” value ([2]; oral dose 5000 µg/kg bw) was 2.7%. For the same molecule, the Body weight ([2]; oral dose 15000 µg/kg bw) was 18.3 ± 0.8 gram, the Liver weight ([2]; oral dose 15000 µg/kg bw) was 5.06 ± 0.22 % of bw and the Spleen weight ([2]; oral dose 15000 µg/kg bw) was 0.33 ± 0.05 % of bw. The Thymus weight ([2]; oral dose 15000 µg/kg bw) was 0.23 ± 0.04 % of bw, the “% lipid / g liver” value ([2]; oral dose 15000 µg/kg bw) was 3.3% and the Body weight ([2]; oral dose 50000 µg/kg bw) was 18.0 ± 1.8 gram. For the same molecule, the Liver weight ([2]; oral dose 50000 µg/kg bw) was 4.87 ± 0.41 % of bw, the Spleen weight ([2]; oral dose 50000 µg/kg bw) was 0.30 ± 0.03 % of bw and the Thymus weight ([2]; oral dose 50000 µg/kg bw) was 0.20 ± 0.05 % of bw. For the same molecule, the “% lipid / g liver” value ([2]; oral dose 50000 µg/kg bw) was 3.5%, the Body weight ([2]; oral dose 150000 µg/kg bw) was 19.2 ± 0.8 gram and the Liver weight ([2]; oral dose 150000 µg/kg bw) was 6.14 ± 0.45 % of bw. The Spleen weight ([2]; oral dose 150000 µg/kg bw) was 0.34 ± 0.04 % of bw, the Thymus weight ([2]; oral dose 150000 µg/kg bw) was 0.21 ± 0.05 % of bw and the “% lipid / g liver” value ([2]; oral dose 150000 µg/kg bw) was 4.6%. For the same molecule, the Body weight ([2]; oral dose 500000 µg/kg bw) was 19.1 ± 1.0 gram, the Liver weight ([2]; oral dose 500000 µg/kg bw) was 7.23 ± 0.29 % of bw and the Spleen weight ([2]; oral dose 500000 µg/kg bw) was 0.31 ± 0.03 % of bw. For the same molecule, the Thymus weight ([2]; oral dose 500000 µg/kg bw) was 0.23 ± 0.04 % of bw and the “Dose with significant increase in liver weight vs vehicle controls” value [2] was ≥ 150,000 µg/kg BW.
